According to patent US20150080551A1, “LYSINE OLIGOMER DERIVATIVE AND CARTILAGE TISSUE MARKER MADE THEREOF” (NATIONAL UNIVERSITY CORPORATION OKAYAMA UNIVERSITY, priority 2012, published 2015):

Experiments:
[1] = test system: cartilage tissue (articular cartilage, distal end of a femur); assay: Immersion of a distal end of a femur of a normal mouse in a cartilage tissue visualization reagent solution, ex vivo fluorescence microscopy; conditions: room temperature, 1 hour, GFP filter; for staining of cartilage (fluorescence signal, FIG. 2): 0.1 mM solution in saline; for staining of cartilage (fluorescence signal, FIG. 1): 0.1 mM solution in saline containing 25% ethanol
Description: Two normal C57B6/J strain mouse (8 week old, female) were prepared. The animals were euthanized by ether deep anesthesia and a distal end of a femur was excised. The sample was immersed in 100 μL of a 0.1 mM lysine oligomer derivative solution at room temperature for 1 hour. After 1 hour, the sample was washed twice with buffered saline. This was embedded in 4% CMC compound, frozen in hexane/liquid nitrogen, and cut into thin slices with a thickness of 7 μm using a tungsten carbide blade TC-65 (Leica) for a hard tissue slice and Cryofilm (Leica) in a cryostat without decalcification. The slice was thawed at room temperature for 10 sec, immersed in 100% ethanol for about 30 sec, stored in 4% paraformaldehyde (PFA) for a while, washed with tap water, and then subjected to fluorescence microscopy. An optical filer was a GFP filter. A lysine peptide was labeled with a fluorescence agent NBD, so that its signal was detected.
Here, a solvent of the solution of a lysine oligomer derivative was saline containing 25% ethanol. FIG. 1 is an enlarged image of an articular cartilage area in a sagittal plane of a knee joint in a distal end of a femur. The broken line indicates a tide-mark which is a boundary plane between a cartilage and a calcified cartilage layer.
Here, a solvent of the solution of a lysine oligomer derivative was saline. FIG. 2 is an enlarged image of an articular cartilage area in a sagittal plane of a knee joint in a distal end of a femur. […] For any of compounds 26 to 29, staining of a cartilage tissue was observed. However, staining of compound 26 containing only one lysine unit was slight. […] The white (green in a color photo) regions in the cartilage layer correspond to a part stained by a compound. Some of the circular regions (blue in a color photo) correspond to nuclear stain parts by Hoechst, which were also observed in the calcified layer.

Row | SMILES | staining of cartilage (fluorescence signal, FIG. 2) [1] | melting point [°C] | staining of cartilage (fluorescence signal, FIG. 1) [1]
1 | NCCCC[C@H](N)C(=O)NCCCC[C@H](N)C(=O)NCCCC[C@H](N)C(=O)NCCCC[C@H](N)C(=O)NCCNc1ccc([N+](=O)[O-])c2nonc12 [Compound 28] | further strongly stained | – | –
2 | NCCCC[C@H](N)C(=O)NCCNc1ccc([N+](=O)[O-])c2nonc12 [Compound 26] | slight | 151.4 to 153.9 | –
3 | NCCNc1c(I)cc(C(=O)NCCCC[C@H](NC(=O)c2cc(I)c(NCCN)c(I)c2)C(=O)NCCCC[C@H](NC(=O)c2cc(I)c(NCCN)c(I)c2)C(=O)NCCCC[C@H](NC(=O)c2cc(I)c(NCCN)c(I)c2)C(=O)NCCNc2ccc([N+](=O)[O-])c3nonc23)cc1I [Compound 43] | – | 192.9 to 195.7 | staining was confined to the surface tissue
4 | NCCCC[C@H](N)C(=O)NCCCC[C@H](N)C(=O)NCCCC[C@H](N)C(=O)NCCNc1ccc([N+](=O)[O-])c2nonc12 [Compound 27] | adequately stained | 183.3 to 184.7 | Staining was observed in the cartilage tissue
5 | N=C(N)NCCNc1c(I)cc(C(=O)NCCCC[C@H](NC(=O)c2cc(I)c(NCCNC(=N)N)c(I)c2)C(=O)NCCCC[C@H](NC(=O)c2cc(I)c(NCCNC(=N)N)c(I)c2)C(=O)NCCCC[C@H](NC(=O)c2cc(I)c(NCCNC(=N)N)c(I)c2)C(=O)NCCNc2ccc([N+](=O)[O-])c3nonc23)cc1I [Compound 42] | – | 189.4 to 191.5 | Staining was observed in the cartilage tissue
6 | NCCCC[C@H](N)C(=O)NCCCC[C@H](N)C(=O)NCCCC[C@H](N)C(=O)NCCCC[C@H](N)C(=O)NCCCC[C@H](N)C(=O)NCCNc1ccc([N+](=O)[O-])c2nonc12 [Compound 29] | further strongly stained | – | –
